Assay results as given in PubChem BioAssay AID1963965 (Molecular Pharmacology Branch, DTP, NCI, 2024).
Blank lines part the entries; values can stand above or below the molecule they belong to.

Tested on: 996289-038-R-J1-PDC spheroid viability
Assay: Anticancer human tumor 996289-038-R-J1-PDC patient-derived colon adenocarcinoma cell line growth inhibition [PI3K]
Settings: spheroids with HUVEC and MSC; for IC50: curve of first compound; for viability, T/C: stronger effect = lower value
Summary of the method: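 Spheroid viability read-out. Co-cultures contained the tumor line plus HUVEC and human MSCs. Each agent was paired with a PI3K inhibitor (inavolisib, alpelisib, duvelisib, copanlisib) across half-log dilutions starting at clinical Cmax, or at 10 microM when Cmax was unknown.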

[1] = second compound 0.0316 µM, first compound 0.0316 µM
[2] = second compound 0.0316 µM, first compound 0.1 µM
[3] = second compound 0.0316 µM, first compound 0.316 µM
[4] = second compound 0.0316 µM, first compound 1 µM
[5] = second compound 0.0316 µM, first compound 3.16 µM
[6] = second compound 0.0316 µM, first compound 10 µM
[7] = second compound 0.1 µM, first compound 0.0316 µM
[8] = second compound 0.1 µM, first compound 0.1 µM
[9] = second compound 0.1 µM, first compound 0.316 µM
[10] = second compound 0.1 µM, first compound 1 µM
[11] = second compound 0.1 µM, first compound 3.16 µM
[12] = second compound 0.1 µM, first compound 10 µM
[13] = second compound 0.316 µM, first compound 0.0316 µM
[14] = second compound 0.316 µM, first compound 0.1 µM
[15] = second compound 0.316 µM, first compound 0.316 µM
[16] = second compound 0.316 µM, first compound 1 µM
[17] = second compound 0.316 µM, first compound 3.16 µM
[18] = second compound 0.316 µM, first compound 10 µM
[19] = second compound 1 µM, first compound 0.0316 µM
[20] = second compound 1 µM, first compound 0.1 µM
[21] = second compound 1 µM, first compound 0.316 µM
[22] = second compound 1 µM, first compound 1 µM
[23] = second compound 1 µM, first compound 3.16 µM
[24] = second compound 1 µM, first compound 10 µM
[25] = second compound 0.00316 µM, first compound 0.0316 µM
[26] = second compound 0.00316 µM, first compound 0.1 µM
[27] = second compound 0.00316 µM, first compound 0.316 µM
[28] = second compound 0.00316 µM, first compound 1 µM
[29] = second compound 0.00316 µM, first compound 3.16 µM
[30] = second compound 0.00316 µM, first compound 10 µM
[31] = second compound 0.01 µM, first compound 0.0316 µM
[32] = second compound 0.01 µM, first compound 0.1 µM
[33] = second compound 0.01 µM, first compound 0.316 µM
[34] = second compound 0.01 µM, first compound 1 µM
[35] = second compound 0.01 µM, first compound 3.16 µM
[36] = second compound 0.01 µM, first compound 10 µM
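Also: spheroids exposed to compounds for seven days before viability read.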
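For viability, T/C in this document: luminescence used as a proxy for viable cell amount; percent viability relative to DMSO vehicle control as 100%.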

IC50 (second compound 0.0316 µM): > 10 µM
IC50 (second compound 0.1 µM): > 10 µM
IC50 (second compound 0.316 µM): > 10 µM
IC50 (second compound 1 µM): > 10 µM
IC50 (second compound 3.16 µM): > 10 µM
IC50 (second compound 10 µM): < 0.0316 µM
Structure (SMILES): C[C@@H](NC(=O)c1ncnc(N)c1Cl)c1ncc(C(=O)Nc2cc(C(F)(F)F)c(Cl)cn2)s1 + Cc1nc(NC(=O)N2CCCC2C(N)=O)sc1-c1ccnc(C(C)(C)C(F)(F)F)c1
viability, T/C [1]: 89.5%
viability, T/C [2]: 89.8%
viability, T/C [3]: 124%
viability, T/C [4]: 114%
viability, T/C [5]: 113%
viability, T/C [6]: 128%
viability, T/C [7]: 99.3%
viability, T/C [8]: 100%
viability, T/C [9]: 103%
viability, T/C [10]: 104%
viability, T/C [11]: 109%
viability, T/C [12]: 105%
viability, T/C [13]: 80.5%
viability, T/C [14]: 88.6%
viability, T/C [15]: 90.8%
viability, T/C [16]: 93.9%
viability, T/C [17]: 109%
viability, T/C [18]: 92.4%
viability, T/C [19]: 64.3%
viability, T/C [20]: 72.8%
viability, T/C [21]: 73.5%
viability, T/C [22]: 81.1%
viability, T/C [23]: 102%
viability, T/C [24]: 70.8%
viability, T/C (second compound 3.16 µM, first compound 0.0316 µM): 62.1%
viability, T/C (second compound 3.16 µM, first compound 0.1 µM): 68.3%
viability, T/C (second compound 3.16 µM, first compound 0.316 µM): 60.3%
viability, T/C (second compound 3.16 µM, first compound 1 µM): 67.7%
viability, T/C (second compound 3.16 µM, first compound 3.16 µM): 68.7%
viability, T/C (second compound 3.16 µM, first compound 10 µM): 54.3%
viability, T/C (second compound 10 µM, first compound 0.0316 µM): 40.6%
viability, T/C (second compound 10 µM, first compound 0.1 µM): 47.1%
viability, T/C (second compound 10 µM, first compound 0.316 µM): 54.3%
viability, T/C (second compound 10 µM, first compound 1 µM): 44.3%
viability, T/C (second compound 10 µM, first compound 3.16 µM): 46.9%
viability, T/C (second compound 10 µM, first compound 10 µM): 39.9%

IC50 (second compound 0.00316 µM): > 10 µM
IC50 (second compound 0.01 µM): > 10 µM
IC50 (second compound 0.0316 µM): > 10 µM
IC50 (second compound 0.1 µM): > 10 µM
IC50 (second compound 0.316 µM): < 0.0316 µM
IC50 (second compound 1 µM): < 0.0316 µM
Structure (SMILES): CC(Cn1ccc(-c2ccc(C#N)c(Cl)c2)n1)NC(=O)c1cc(C(C)O)[nH]n1 (stereo not drawn) + COc1c(OCCCN2CCOCC2)ccc2c3n(c(=NC(=O)c4cnc(N)nc4)nc12)CCN3
viability, T/C [25]: 103%
viability, T/C [26]: 91.1%
viability, T/C [27]: 98%
viability, T/C [28]: 99%
viability, T/C [29]: 96.9%
viability, T/C [30]: 102%
viability, T/C [31]: 90.5%
viability, T/C [32]: 97.2%
viability, T/C [33]: 92.6%
viability, T/C [34]: 93.1%
viability, T/C [35]: 103%
viability, T/C [36]: 89.7%
viability, T/C [1]: 69.7%
viability, T/C [2]: 79.4%
viability, T/C [3]: 85.6%
viability, T/C [4]: 80%
viability, T/C [5]: 78.9%
viability, T/C [6]: 78.7%
viability, T/C [7]: 55%
viability, T/C [8]: 56.6%
viability, T/C [9]: 66.7%
viability, T/C [10]: 64.8%
viability, T/C [11]: 72.3%
viability, T/C [12]: 56.1%
viability, T/C [13]: 34.1%
viability, T/C [14]: 38.9%
viability, T/C [15]: 40%
viability, T/C [16]: 41%
viability, T/C [17]: 40.5%
viability, T/C [18]: 39.9%
viability, T/C [19]: 25.2%
viability, T/C [20]: 17.5%
viability, T/C [21]: 23%
viability, T/C [22]: 18%
viability, T/C [23]: 22.1%
viability, T/C [24]: 17.5%

IC50 (second compound 0.00316 µM): 6.75 µM
IC50 (second compound 0.01 µM): 6.89 µM
IC50 (second compound 0.0316 µM): 6.69 µM
IC50 (second compound 0.1 µM): 5.85 µM
IC50 (second compound 0.316 µM): 4.91 µM
IC50 (second compound 1 µM): 4.66 µM
Structure (SMILES): CC1(C)CCC(Nc2ncc(C(F)(F)F)c(-c3c[nH]c4c(P(C)(C)=O)c(C#N)ccc34)n2)CN1 (stereo not drawn) + CC(Nc1ccc2c(c1)OCCn1cc(N3C(=O)OCC3C(F)F)nc1-2)C(N)=O
viability, T/C [25]: 111%
viability, T/C [26]: 90.6%
viability, T/C [27]: 81%
viability, T/C [28]: 87.3%
viability, T/C [29]: 97.1%
viability, T/C [30]: 27.4%
viability, T/C [31]: 110%
viability, T/C [32]: 93%
viability, T/C [33]: 81.7%
viability, T/C [34]: 94.1%
viability, T/C [35]: 89.7%
viability, T/C [36]: 31.1%
viability, T/C [1]: 99.3%
viability, T/C [2]: 83.6%
viability, T/C [3]: 85.5%
viability, T/C [4]: 81.9%
viability, T/C [5]: 88.5%
viability, T/C [6]: 29.7%
viability, T/C [7]: 89%
viability, T/C [8]: 76.3%
viability, T/C [9]: 81.2%
viability, T/C [10]: 82.2%
viability, T/C [11]: 81%
viability, T/C [12]: 22.9%
viability, T/C [13]: 73.9%
viability, T/C [14]: 72%
viability, T/C [15]: 76.6%
viability, T/C [16]: 65.8%
viability, T/C [17]: 69%
viability, T/C [18]: 19.9%
viability, T/C [19]: 58.8%
viability, T/C [20]: 73.8%
viability, T/C [21]: 63.7%
viability, T/C [22]: 63.3%
viability, T/C [23]: 66.8%
viability, T/C [24]: 19.9%

IC50 (second compound 0.00316 µM): > 10 µM
IC50 (second compound 0.01 µM): > 10 µM
IC50 (second compound 0.0316 µM): > 10 µM
IC50 (second compound 0.1 µM): > 10 µM
IC50 (second compound 0.316 µM): > 10 µM
IC50 (second compound 1 µM): > 10 µM
Structure (SMILES): CNC(=O)c1ccc(N2C(=S)N(c3ccc(C#N)c(C(F)(F)F)c3)C(=O)C2(C)C)cc1F + CC(Nc1ccc2c(c1)OCCn1cc(N3C(=O)OCC3C(F)F)nc1-2)C(N)=O
viability, T/C [25]: 82.9%
viability, T/C [26]: 95.5%
viability, T/C [27]: 103%
viability, T/C [28]: 93.1%
viability, T/C [29]: 89%
viability, T/C [30]: 110%
viability, T/C [31]: 100%
viability, T/C [32]: 88.6%
viability, T/C [33]: 100%
viability, T/C [34]: 88.2%
viability, T/C [35]: 98.2%
viability, T/C [36]: 102%
viability, T/C [1]: 98.3%
viability, T/C [2]: 81.9%
viability, T/C [3]: 80.1%
viability, T/C [4]: 87.9%
viability, T/C [5]: 92.1%
viability, T/C [6]: 86.4%
viability, T/C [7]: 79.4%
viability, T/C [8]: 85.4%
viability, T/C [9]: 80.5%
viability, T/C [10]: 77.8%
viability, T/C [11]: 92.9%
viability, T/C [12]: 72%
viability, T/C [13]: 65.1%
viability, T/C [14]: 70.8%
viability, T/C [15]: 73.3%
viability, T/C [16]: 74.2%
viability, T/C [17]: 70.3%
viability, T/C [18]: 64%
viability, T/C [19]: 55.5%
viability, T/C [20]: 59.3%
viability, T/C [21]: 60.4%
viability, T/C [22]: 61.5%
viability, T/C [23]: 51.9%
viability, T/C [24]: 53.5%
